According to US9586951B2 (FUJIFILM Corporation, priority 2013, dated 2017):

Biological target: T1, ATM (Homo sapiens, UniProt Q13315)
T1 construct: detecting phosphorylation of Chk2 in a human non-small cell lung cancer cell line NCI-H460 (ATCC company); host or cells: NCI-H460 human non-small cell lung cancer cells
Experiment: ATM inhibition test (phosphorylation of Chk2 generated by ionizing radiation, AlphaScreen SureFire)
Format: cell-based
Conditions: phosphorylated Chk2 in NCI-H460 cells, ionizing radiation 8Gy, 1 hour after test compound treatment; read-out: ATM inhibitory activity
Summary of the method: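 NCI-H460 cells, compound 1 h pre-treatment, 8Gy IR, further 1 h at 37° C in 5% CO2. Read-out: phospho-Chk2 via AlphaScreen SureFire. % inhibition relative to IR-induced signal window (irradiated vs non-irradiated drug-free wells).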

T1 sequence (Q13315 whole entry): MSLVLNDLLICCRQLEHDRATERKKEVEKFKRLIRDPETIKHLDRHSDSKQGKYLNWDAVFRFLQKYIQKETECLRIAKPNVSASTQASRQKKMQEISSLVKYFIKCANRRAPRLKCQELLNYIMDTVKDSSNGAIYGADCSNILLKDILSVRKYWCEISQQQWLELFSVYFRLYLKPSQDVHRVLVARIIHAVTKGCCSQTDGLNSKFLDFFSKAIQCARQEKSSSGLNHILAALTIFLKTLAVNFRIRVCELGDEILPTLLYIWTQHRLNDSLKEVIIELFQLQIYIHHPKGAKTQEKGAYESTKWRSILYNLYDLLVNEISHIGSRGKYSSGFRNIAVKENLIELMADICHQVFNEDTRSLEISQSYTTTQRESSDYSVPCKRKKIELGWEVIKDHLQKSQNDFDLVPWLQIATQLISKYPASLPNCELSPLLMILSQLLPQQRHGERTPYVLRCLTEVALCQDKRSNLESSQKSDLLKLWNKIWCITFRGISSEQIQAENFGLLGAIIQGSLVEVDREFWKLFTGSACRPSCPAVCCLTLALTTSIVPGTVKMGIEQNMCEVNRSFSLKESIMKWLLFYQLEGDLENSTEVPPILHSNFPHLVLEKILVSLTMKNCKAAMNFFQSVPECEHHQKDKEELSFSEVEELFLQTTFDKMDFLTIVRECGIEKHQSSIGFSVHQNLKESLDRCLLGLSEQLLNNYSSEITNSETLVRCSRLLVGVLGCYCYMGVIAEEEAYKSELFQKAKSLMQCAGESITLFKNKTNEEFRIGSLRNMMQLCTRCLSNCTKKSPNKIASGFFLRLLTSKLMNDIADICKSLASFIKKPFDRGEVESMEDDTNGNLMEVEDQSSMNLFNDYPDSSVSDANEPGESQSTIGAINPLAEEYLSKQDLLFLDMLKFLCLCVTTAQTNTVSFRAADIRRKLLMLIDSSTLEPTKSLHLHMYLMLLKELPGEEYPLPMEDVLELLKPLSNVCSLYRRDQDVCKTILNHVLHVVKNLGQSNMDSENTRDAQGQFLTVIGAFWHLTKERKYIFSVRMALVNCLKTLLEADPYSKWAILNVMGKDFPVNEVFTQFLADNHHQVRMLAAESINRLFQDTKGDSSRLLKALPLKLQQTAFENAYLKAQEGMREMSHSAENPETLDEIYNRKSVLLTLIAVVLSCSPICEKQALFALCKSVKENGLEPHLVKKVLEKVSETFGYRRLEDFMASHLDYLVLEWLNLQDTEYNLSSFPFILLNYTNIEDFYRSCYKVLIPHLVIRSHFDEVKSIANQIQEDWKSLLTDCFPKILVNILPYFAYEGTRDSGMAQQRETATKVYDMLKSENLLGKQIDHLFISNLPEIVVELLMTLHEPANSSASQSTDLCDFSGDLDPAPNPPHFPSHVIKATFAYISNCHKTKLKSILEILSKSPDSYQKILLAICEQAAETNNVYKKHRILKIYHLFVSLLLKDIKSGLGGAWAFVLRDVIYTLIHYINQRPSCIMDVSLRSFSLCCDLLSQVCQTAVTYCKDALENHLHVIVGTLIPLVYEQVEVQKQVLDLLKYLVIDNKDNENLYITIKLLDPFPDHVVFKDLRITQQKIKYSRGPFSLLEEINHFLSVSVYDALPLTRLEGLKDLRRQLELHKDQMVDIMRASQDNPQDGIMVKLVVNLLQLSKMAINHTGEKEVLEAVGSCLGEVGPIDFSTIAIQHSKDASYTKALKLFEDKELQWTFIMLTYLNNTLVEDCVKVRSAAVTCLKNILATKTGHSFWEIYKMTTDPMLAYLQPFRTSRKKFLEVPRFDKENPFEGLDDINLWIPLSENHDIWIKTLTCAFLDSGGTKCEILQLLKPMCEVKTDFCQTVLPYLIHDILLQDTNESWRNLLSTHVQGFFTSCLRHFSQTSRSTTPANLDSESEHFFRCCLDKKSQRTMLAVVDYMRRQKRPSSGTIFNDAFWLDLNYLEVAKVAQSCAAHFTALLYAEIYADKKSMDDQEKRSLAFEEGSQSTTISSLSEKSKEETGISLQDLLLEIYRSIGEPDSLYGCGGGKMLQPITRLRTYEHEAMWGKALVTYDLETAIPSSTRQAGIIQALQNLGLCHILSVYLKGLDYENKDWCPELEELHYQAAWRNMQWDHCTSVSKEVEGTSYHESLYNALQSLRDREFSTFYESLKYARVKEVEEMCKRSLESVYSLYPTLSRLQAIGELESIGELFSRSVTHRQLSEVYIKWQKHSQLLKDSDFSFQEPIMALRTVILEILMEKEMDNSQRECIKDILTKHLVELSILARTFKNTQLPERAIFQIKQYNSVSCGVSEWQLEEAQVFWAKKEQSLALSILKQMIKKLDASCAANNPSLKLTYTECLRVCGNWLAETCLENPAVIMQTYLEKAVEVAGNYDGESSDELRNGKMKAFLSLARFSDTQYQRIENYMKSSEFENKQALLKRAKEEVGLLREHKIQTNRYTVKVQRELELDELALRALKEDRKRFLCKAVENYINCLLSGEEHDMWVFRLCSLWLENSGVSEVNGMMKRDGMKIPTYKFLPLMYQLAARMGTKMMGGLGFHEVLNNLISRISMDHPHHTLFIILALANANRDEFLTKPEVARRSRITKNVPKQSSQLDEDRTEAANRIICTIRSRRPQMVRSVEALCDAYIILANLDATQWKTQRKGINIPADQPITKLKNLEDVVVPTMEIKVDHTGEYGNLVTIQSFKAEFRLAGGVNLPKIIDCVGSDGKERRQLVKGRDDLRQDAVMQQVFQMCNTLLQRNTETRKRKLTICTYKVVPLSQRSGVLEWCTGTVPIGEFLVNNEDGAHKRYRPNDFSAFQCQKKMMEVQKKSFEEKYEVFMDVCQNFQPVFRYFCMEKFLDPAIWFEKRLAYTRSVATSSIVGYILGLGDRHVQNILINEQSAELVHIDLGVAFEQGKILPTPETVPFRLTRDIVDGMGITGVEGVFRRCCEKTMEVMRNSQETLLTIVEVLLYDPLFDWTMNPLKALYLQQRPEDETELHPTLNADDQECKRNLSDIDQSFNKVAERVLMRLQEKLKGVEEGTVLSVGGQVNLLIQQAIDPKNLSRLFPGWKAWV

Row | Structure (SMILES) | IC50 [nM]
1 | O=c1cc(N2CCOCC2)cc(-c2cccc3c2Oc2ccc(NC4CCN(Cc5cccs5)CC4)cc2C3)[nH]1 [Example 2-28-25, 4-Morpholino-6-(7-((1-(thiophen-2-ylmethyl)piperidin-4-yl)amino)-9H-xanthen-4-yl)pyridin-2(1H)-one] | 100 to 500
2 | CCN1CCC(C(Nc2ccc3c(c2)Sc2cccc(-c4cc(N5CCOCC5)cc(=O)[nH]4)c2S3)c2ccc(C)cn2)CC1 (stereo not drawn) [Example 1-56-1, 6-(7-(((1-ethylpiperidin-4-yl)(5-methylpyridin-2-yl)methyl)amino)thianthren-1-yl)-4-morpholinopyridin-2(1H)-one] | < 100
3 | Cc1cnc(C(CCN(C)C)Nc2ccc3c(c2)Sc2cccc(-c4cc(=O)cc(N5CCOCC5)o4)c2S3)cn1 (single isomer, unassigned) [Example 10-8, 2-(7-((3-(dimethylamino)-1-(5-methylpyrazin-2-yl)propyl)amino)thianthren-1-yl)-6-morpholino-4H-pyran-4-one] | < 100
4 | CC(C)N1CCC(Nc2ccc3c(c2)Sc2cccc(-c4cc(N5CCOCC5)cc(=O)[nH]4)c2S3)CC1 [Example 1-12-116, 6-(7-((1-Isopropylpiperidin-4-yl)amino)thianthren-1-yl)-4-morpholino pyridin-2(1H)-one] | 100 to 500
5 | CC(Nc1ccc2c(c1)Cc1cccc(-c3cc(N4CCOCC4)cc(=O)[nH]3)c1O2)c1cc(C#N)ncn1 (stereo not drawn) [Example 2-14-60, 6-(1-((5-(4-Morpholino-6-oxo-1,6-dihydropyridin-2-yl)-9H-xanthen-2-yl)amino)ethyl)pyrimidine-4-carbonitrile] | 100 to 500
6 | Cc1cnc(C(CCN2CCN(C)CC2)Nc2ccc3c(c2)Sc2cccc(-c4cc(N5CCOCC5)cc(=O)[nH]4)c2S3)cn1 (single isomer, unassigned) [Example 10-3-2, 6-(7-((3-(4-Methylpiperazin-1-yl)-1-(5-methylpyrazin-2-yl)propyl)amino)thianthren-1-yl)-4-rnorpholino pyridin-2 (1H)-one] | < 100
7 | COC[C@@H](Nc1ccc2c(c1)Sc1cccc(-c3cc(N4CCOCC4)cc(=O)[nH]3)c1S2)C(=O)O [Example 1-49, (R)-3-methoxy-2-((6-(4-morpholino-6-oxo-1,6-dihydropyridin-2-yl)thianthren-2-yl)amino)propionic acid] | 500 to 2000
8 | O=c1cc(N2CCOCC2)cc(-c2cccc3c2Sc2ccc(NC4CCCCC4Cl)cc2S3)[nH]1 (stereo not drawn) [Example 1-12-72, 6-(7-((2-Chlorocyclohexyl)amino)thianthren-1-yl)-4-morpholino pyridin-2(1H)-one] | 500 to 2000
9 | O=c1cc(N2CCOCC2)cc(-c2cccc3c2Sc2ccc(NCCN4CCCOCC4)cc2S3)[nH]1 [Example 1-10-6, 6-(7-((2-(1,4-Oxazepan-4-yl)ethyl)amino)thianthren-1-yl)-4-morpholinopyridin-2(1H)-one] | 100 to 500
10 | CN(C)c1cnc(CN(Cc2cnc(N(C)C)cn2)c2ccc3c(c2)Cc2cccc(-c4cc(N5CCOCC5)cc(=O)[nH]4)c2O3)cn1 [Example 2-2-76, 6-(7-(bis((5-(dimethylamino)pyrazin-2-yl)methyl)amino)-9H-xanthen-4-yl)-4-morpholinopyridin-2(1H)-one] | < 100
11 | O=c1cc(N2CCOCC2)cc(-c2cccc3c2Sc2ccc(NCCN4CCC(F)(F)CC4)cc2S3)[nH]1 [Example 1-10-1, 6-(7-((2-(4,4-Difluoropiperidin-1-yl)ethyl)amino)thianthren-1-yl)-4-morpholinopyridin-2(1H)-one] | 100 to 500
12 | CC(Nc1ccc2c(c1)Sc1cccc(-c3cc(N4CCOCC4)cc(=O)[nH]3)c1S2)C(=O)N1CCCC1C (stereo not drawn) [Example 1-18-6] | 100 to 500
13 | O=C(Nc1ncc(CNc2ccc3c(c2)Sc2cccc(-c4cc(N5CCOCC5)cc(=O)[nH]4)c2S3)cn1)N1CCCC1 [Example 1-12-48, N-(5-(((6-(4-Morpholino-6-oxo-1,6-dihydropyridin-2-yl)thianthren-2-yl)amino)methyl)pyrimidin-2-yl)pyrrolidine-1-car-boxamide] | 100 to 500

More lines, now with the values ahead:

Row | IC50 [nM] | Structure (SMILES)
14 | 100 to 500 | O=c1cc(N2CCOCC2)cc(-c2cccc3c2Oc2ccc(NCc4ccnc(Cl)c4F)cc2C3)[nH]1 [Example 2-2-19, 6-(7-(((2-Chloro-3-fluoropyridin-4-yl)methyl)amino)-9H-xanthen-4-yl)-4-morpholino pyridin-2(1H)-one]
15 | 100 to 500 | CC(Nc1ccc2c(c1)Sc1cccc(-c3cc(N4CCOCC4)cc(=O)[nH]3)c1S2)c1cc(C#N)ncn1 (single isomer, unassigned) [Example 1-12-146-2, 6-(1-((6-(4-morpholino-6-oxo-1,6-dihydropyridin-2-yl)thianthren-2-yl)amino)ethyl)pyrimidine-4-carbonitrile]
16 | 500 to 2000 | Nc1ncccc1CNc1ccc2c(c1)Sc1cccc(-c3cc(N4CCOCC4)cc(=O)[nH]3)c1O2 [Example 4-8-20, 6-(8-(((2-Aminopyridin-3-yl)methyl)amino)phenoxathiin-4-yl)-4-morpholino pyridin-2(1H)-one]
17 | 100 to 500 | Cc1ccnc(CNc2ccc3c(c2)Cc2ccnc(-c4cc(N5CCOCC5)cc(=O)[nH]4)c2O3)c1 [Example 2-41-7, 6-(7-(((4-Methylpyridin-2-yl)methyl)amino)-5H-chromeno [2,3-c]pyridin-1-yl)-4-morpholino pyridin-2(1H)-one]
18 | 100 to 500 | CNc1ncccc1CNc1ccc2c(c1)Cc1cccc(-c3cc(N4CCOCC4)cc(=O)[nH]3)c1O2 [Example 2-2-26, 6-(7-(((2-(Methylamino)pyridin-3-yl)methyl)amino)-9H-xanthen-4-yl)-4-morpholino pyridin-2(1H)-one]
19 | 100 to 500 | CC(Nc1ccc2c(c1)Cc1cccc(-c3cc(N4CCOCC4)cc(=O)[nH]3)c1O2)c1ncccn1 (stereo not drawn) [Example 2-14-78, 4-Morpholino-6-(7-((1-(pyrimidin-2-yl)ethyl)amino)-9H-xanthen-4-yl) pyridin-2(1H)-one]
20 | 500 to 2000 | O=c1cc(N2CCOCC2)cc(-c2cccc3c2Oc2ccc(NC4CCN(Cc5ccccn5)CC4)cc2C3)[nH]1 [Example 2-28-1, 4-Morpholino-6-(7-((1-(pyridin-2-ylmethyl)piperidin-4-yl)amino)-9H-xanthen-4-yl)pyridin-2 (1H)-one]
21 | 100 to 500 | COc1cncc(CNc2ccc3c(c2)Cc2cccc(-c4cc(N5CCOCC5)cc(=O)[nH]4)c2S3)c1 [Example 3-8-9, 6-(7-(((5-Methoxypyridin-3-yl)methyl)amino)-9H-thioxanthen-4-yl)-4-morpholino pyridin-2 (1H)-one]
22 | 100 to 500 | Cc1cccc(C(CN)Nc2ccc3c(c2)Sc2cccc(-c4cc(N5CCOCC5)cc(=O)[nH]4)c2S3)n1 (stereo not drawn) [Example 1-19-2, 6-(7-((2-Amino-1-(6-methylpyridin-2-yl)ethyl)amino)thianthren-1-yl)-4-morpholinopyridin-2(1H)-one]
23 | 100 to 500 | CCOCC(Nc1ccc2c(c1)Sc1cccc(-c3cc(N4CCOCC4)cc(=O)[nH]3)c1S2)c1ccc(C)cn1 (stereo not drawn) [Example 1-12-101, 6-(7-((2-Ethoxy-1-(5-methylpyridin-2-yl)ethyl)amino)thianthren-1-yl)-4-morpholino pyridin-2(1H)-one]
24 | < 100 | Cc1ccnc(C(C)Nc2ccc3c(c2)Cc2cccc(-c4cc(N5CCOCC5)cc(=O)[nH]4)c2O3)c1 (single isomer, unassigned) [Example 2-14-93-2, 6-(7-((1-(4-methylpyridin-2-yl)ethyl)amino)-9H-xanthen-4-yl)-4-morpholinopyridin-2(1H)-one]
